Values joined by “and” are separate entries in the source; they are usually repeats but may differ in a detail not shown here. Identical values can stand only once. “Also recorded” adds a separate entry of the source.
Assays:
Swiss albino male mice = experiment: Gross behavioral study; conditions: 125 mg/kg oral dose, 125 mg/kg
[1] = molecular target: T1, Acetylcholinesterase (AChE) (Mus musculus, UniProt P21836); experiment: Acetylcholinesterase (AChE) assay in brain (in vitro), Ellman method; type: biochemical, Swiss albino mice
T1 construct: A 10% (w/v) homogenate of brain was prepared; from tissue; host or cells: whole brain of adult Swiss albino mice; supernatant (100,000 g) of the 1% Triton X-100 treated homogenate
T1 sequence (P21836 32-614): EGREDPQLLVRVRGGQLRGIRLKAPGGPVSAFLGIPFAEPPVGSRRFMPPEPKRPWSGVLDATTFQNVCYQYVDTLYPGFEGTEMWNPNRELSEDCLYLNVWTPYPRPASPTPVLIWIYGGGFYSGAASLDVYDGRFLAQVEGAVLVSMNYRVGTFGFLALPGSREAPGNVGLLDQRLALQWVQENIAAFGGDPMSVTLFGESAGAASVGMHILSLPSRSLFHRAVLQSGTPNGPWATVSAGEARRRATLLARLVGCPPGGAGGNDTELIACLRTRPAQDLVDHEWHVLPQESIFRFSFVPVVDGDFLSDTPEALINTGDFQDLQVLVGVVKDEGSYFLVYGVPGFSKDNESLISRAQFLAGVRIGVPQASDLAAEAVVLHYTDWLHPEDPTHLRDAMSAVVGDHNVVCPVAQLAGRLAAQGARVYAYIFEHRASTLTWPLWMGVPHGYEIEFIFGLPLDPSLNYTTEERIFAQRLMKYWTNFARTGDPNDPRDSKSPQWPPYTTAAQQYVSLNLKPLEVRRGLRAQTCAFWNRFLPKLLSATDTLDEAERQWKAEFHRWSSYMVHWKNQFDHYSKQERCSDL
Experimental: Acetylcholinesterase (AChE) Assay in Brain (In Vitro)
The mice were perfused under mild ether anesthesia through heart with ice cooled normal saline (0.9% NaCl) to remove blood-born cholinesterase from the brain. After perfusion the whole brain was taken out. A 10% (w/v) homogenate of brain was prepared first by homogenizing in an Ultra-Turrax T25 homogenizer at a speed of 9500 rpm thrice giving intervals for few seconds in between the runs, with sodium phosphate buffer (0.03 M, pH-7)).
The brain homogenate in volume of 500 μl was mixed with 1% Triton X-100 (1% w/v in 0.03M sodium phosphate buffer, pH-7) and centrifuged at 100,000 g at 4° C. in a Beckman Ultracentrifuge (LE 80, USA), using a fixed angle rotor (80 ti) for 60 min. Supernatant was collected and stored at 4° C. for acetylcholinesterase estimation.
The assay for each sample was run in triplicate and each experiment was performed twice.
The specific activity of AChE is expressed in μM/min/mg of protein.
The test substance (dissolved in ethanol) was incubated with enzyme source in different concentrations ([…]) for 30 min at 37° C. prior to obtain kinetic profile of AChE activity. […] The AChE inhibitory activity was calculated on the basis of % decrease in AChE activity from control values i.e. AChE activity without incubation with any standard or test drug.
The results are expressed as mean±S.E.M. Statistical analysis of passive avoidance values were performed by t-test. The IC50 value was calculated by non linear regression method using GraphPad Prism software.

[2] = tested on: scopolamine induced amnesia in mice; experiment: Passive avoidance test, scopolamine induced amnesia (in vivo); set-up: species or system Swiss albino male mice; conditions: oral 3.75, 7.5 and 15 mg/kg 1 hr prior to 1st trial, scopolamine 3 mg/kg IP, FIG. 3
Experimental: Passive avoidance test is widely used as experimental model to assess learning and memory functions in rodents. Scopolamine induced impairment in passive avoidance (in vivo) and inhibition of acetylcholinesterase (in vitro) in rodents are commonly employed screening tests to predict potential of a compound as acetylcholinesterase inhibitor and anti-amnesic drug (Das et al., 2002).
[…]. Mice were kept in standard housing condition with 12 h light and dark cycle. The food and water were available ad libitum.
The passive avoidance test was carried out as described by Tota et al., 2009. The mice were subjected to the passive avoidance test by placing in a compartment with light at intensity of 8 [Scale from 0 to 10 (brightest)] in a computerized shuttle box with a software programme PACS 30 (Columbus Instruments, Ohio, USA).
The light compartment was isolated from the dark compartment by an automated guillotine door. After an acclimatization period of 30 s, the guillotine door was opened and closed automatically after entry of the mouse into the dark compartment. The subject received a low-intensity foot shock (0.5 mA; 10 s) in the dark compartment. Infrared sensors monitored the transfer of the animal from one compartment to another which was recorded as transfer latency time (TLT) in seconds. […]

[3] = read-out: % Inhibition of AChE enzyme

CN(C)C(=O)Oc1ccc2c(c1)N(Cc1ccccc1)CCC2 [Compound 8k, 1-benzyl-1,2,3,4-tetrahydroquinolin-7-yl dimethylcarbamate]
tolerability (Swiss albino male mice): Well tolerated | cholinergic symptoms / side effects (Swiss albino male mice; upto 24 hrs of drug administration): no cholinergic symptoms and mortality was observed; also recorded: free from any observable side peripheral side effect; also recorded: No cholinergic symp- | IC50 [1]: 99 ± 3 nM | AChE inhibitory activity compared to Tacrine ([1]; comparison with Tacrine): almost equal or even slightly better | AChE inhibitory activity, fold better compared to the drug rivastigmine ([1]; fold better than rivastigmine): 12 fold and 10 fold | inhibition at 10 µM [1, 3]: 95.5% | inhibition at 100 µM [1, 3]: 98% | improvement in learning (transfer latency time, passive avoidance) [2]: shown potential towards the improvement in learning of mice and almost comparable to the drug Rivastigmine and Tacrine

— patent US8946261B2, “Substituted 1, 2, 3, 4-tetrahydroquinolin-7-yl carbamates as acetylcholinesterase inhibitors for treatment of Alzheimer's disease” (priority 2011, dated 2015)
